This is an account of results in publication PMC7424564 (Pharmacology Research & Perspectives, 2020).

SMILES strings stand for the structures. Entries after “also recorded” stand apart in the source; their conditions may differ.

For orientation: IC50 means the concentration at which inhibition is half-maximal. In general, clearance refers to the volume of plasma or blood freed of the substance per unit of time. Higher therefore signals a high capacity for elimination. A word on the half-life: it is the time in which the quantity being followed falls by half. Higher therefore signals slow loss. As a reminder, the AUC is the area under the concentration-time curve, a measure of exposure. In general, Cmax refers to the peak of the concentration-time curve. One may read the Tmax as the time at which the peak concentration occurs.

Series [1] relates to phospho‐PLCγ2 (Y1217). Briefly: Phospho‐protein analysis in THP‐1 cells. In kind it is cell-based. To be noted: Homo sapiens, THP-1, 1 h, read-out: IC50 PLCγ2‐phosphorylation (Y1217).
The target in series [2] is BTK (Homo sapiens, UniProt Q06187). The series can be described thus: Receptor residence time after washout in THP‐1 cells. Format: binding. The conditions noted are these: 500 nmol/L for 1 hour, 24 hours, densitometric scanning.
BTK, sequence (Q06187 whole entry): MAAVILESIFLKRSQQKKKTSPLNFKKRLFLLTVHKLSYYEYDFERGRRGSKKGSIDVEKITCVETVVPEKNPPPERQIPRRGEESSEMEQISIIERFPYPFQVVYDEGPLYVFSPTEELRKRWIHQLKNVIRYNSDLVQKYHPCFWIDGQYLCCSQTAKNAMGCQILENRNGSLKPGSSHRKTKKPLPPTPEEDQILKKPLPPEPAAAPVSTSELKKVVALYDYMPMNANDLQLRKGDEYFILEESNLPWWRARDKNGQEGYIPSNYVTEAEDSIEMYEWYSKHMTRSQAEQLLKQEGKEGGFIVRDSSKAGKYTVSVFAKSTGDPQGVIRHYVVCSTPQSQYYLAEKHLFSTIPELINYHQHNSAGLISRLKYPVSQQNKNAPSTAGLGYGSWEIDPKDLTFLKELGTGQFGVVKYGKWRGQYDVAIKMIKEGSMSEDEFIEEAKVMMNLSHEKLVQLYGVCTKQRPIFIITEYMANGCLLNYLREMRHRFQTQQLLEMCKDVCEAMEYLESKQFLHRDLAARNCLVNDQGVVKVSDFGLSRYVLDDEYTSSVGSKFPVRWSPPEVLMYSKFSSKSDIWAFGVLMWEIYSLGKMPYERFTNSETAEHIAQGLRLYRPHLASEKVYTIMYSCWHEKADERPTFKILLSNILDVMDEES
The nature of series [3]: In vivo pharmacokinetics in mice. The conditions noted are these: male, BALB/c, mouse, plasma.
The subject of series [4] is IL‐8 secretion. The series can be described thus: Cytokine ELISA, IL‐8 secretion in TMD8 cells. In kind it is cell-based. The conditions noted are these: Homo sapiens, TMD8, 16 h, read-out: IC50 IL‐8 secretion.
Series [5] relates to TMD‐8 DLBCL xenograft tumor. The series can be described thus: TMD‐8 xenograft model. To be noted: for tumor growth inhibition: 20 consecutive days.

Regarding `C=CC(=O)N1CC2CC(n3nc(-c4ccc(C(=O)Nc5ccccn5)cc4)c4c(N)ncnc43)CC2C1` (stereo not drawn) [ZYBT1, 4‐(1‐(2‐acryloyloctahydrocyclopenta[c]pyrrol‐5‐yl)‐4‐amino‐1H‐pyrazolo[3,4‐d]pyrimidin‐3‐yl)‐N‐(pyridin‐2‐yl)benzamide], the concentration for half-maximal inhibition (IC50) is 114 nM in series [1] and 0.2 nM in series [4]. Besides, the “ZYBT1 still bound with BTK after washout” value in series [2] is given as “more than 95%”. The molecule also gave a clearance in series [3] (iv, 1 mg/kg) of 39.5 mL/min/kg. For the same molecule, the half-life is 24.6 min in series [3] (iv, 1 mg/kg) and 45.6 min in series [3] (po, 3 mg/kg). For the same molecule, in series [3] (po, 3 mg/kg), the AUC is 590 ng·h/mL. Further, in series [3] (po, 3 mg/kg), the Cmax came out at 703 ng/mL. For the same molecule, in series [3] (po, 3 mg/kg), the time of peak concentration (Tmax) came out at 15 min. Moreover, the results for the tumor growth inhibition in series [5] (1.5 mg/kg BID oral), in series [5] (3 mg/kg BID oral) and in series [5] (15 mg/kg BID oral) were 10%, 50% and 88%, respectively. The “anti‐tumor efficacy compared with ibrutinib” value in series [5] (12.5 mg/kg, BID, intra peritoneal, 14 consecutive days (Figure S2)) is reported as “comparable; also recorded: slightly better potency compared to Ibrutinib”. Further, in series [5] (15 mg/kg, BID, p.o., 14 consecutive days (Figure S3)), the “anti‐tumor efficacy compared with acalabrutinib” value is given as “much better efficacy than acalabrutinib”. Further, in series [5] (1.5, 3 & 15 mg/kg, p.o, BID, 20 days (Figure S4)), the “effect on body weight” value is “does not have any effect on the body weight”.
